How the values were obtained:
OmpLA = molecular target: T1, OmpLA (Escherichia coli, UniProt P0A921); test: free fatty acid release by ANS displacement from BSA (fluorescence); assay type: biochemical; conditions: DMPG proteoliposomes, CaCl2 added to start, 30 °C
T1 construct: gene pldA; functional dimer, needs divalent cation

PagP = molecular target: T2, PagP (Escherichia coli, UniProt P37001); test: colorimetric release of 4-nitrophenol, A410; assay type: biochemical; conditions: DMPG proteoliposomes, pH 8.5, 2 M urea, room temperature; substrate delivered with methyl-beta-cyclodextrin
T2 sequence (P37001 26-186): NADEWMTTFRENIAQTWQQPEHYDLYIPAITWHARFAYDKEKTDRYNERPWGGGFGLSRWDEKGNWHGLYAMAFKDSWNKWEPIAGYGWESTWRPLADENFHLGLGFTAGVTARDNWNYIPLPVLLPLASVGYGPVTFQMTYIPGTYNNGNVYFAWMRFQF

T1 sequence (P0A921 21-289): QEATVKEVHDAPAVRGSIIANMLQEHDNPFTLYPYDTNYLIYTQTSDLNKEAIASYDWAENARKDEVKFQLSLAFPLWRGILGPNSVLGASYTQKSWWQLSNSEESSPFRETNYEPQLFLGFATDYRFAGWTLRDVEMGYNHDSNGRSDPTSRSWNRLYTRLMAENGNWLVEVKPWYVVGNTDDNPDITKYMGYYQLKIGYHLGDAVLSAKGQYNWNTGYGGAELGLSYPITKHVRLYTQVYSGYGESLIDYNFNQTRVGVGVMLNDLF

SMILES | free fatty acid release by ANS displacement from BSA (fluorescence) (OmpLA) | colorimetric release of 4-nitrophenol, A410 (PagP)
CCCCCCCCCCCCCC(=O)OC[C@H](COP(=O)(O)OCC(O)CO)OC(=O)CCCCCCCCCCCCC (some centres unmarked) [DMPG] | the phospholipase activity of OmpLA was measured in DMPG proteoliposomes | –
CCCCCCCCCCCCCCCC(=O)Oc1ccc([N+](=O)[O-])cc1 [palmitate-4-nitrophenol] | – | MβCD facilitates the rapid delivery of the pNP PagP substrate into liposome bilayers

Source: paper PMC7617971, “OmpA Specifically Modulates the Activity of Enzymes that Reside in the Crowded Bacterial Outer Membrane” (Journal of molecular biology, 2025)
